Source: ChEMBL document CHEMBL1140419, “Synthesis of doxorubicin-peptide conjugate with multidrug resistant tumor cell killing activity” (Bioorg Med Chem Lett, 2005)

Columns and labels:
MCF7 [1] = experiment: Tumor killing activity in MCF7 breast cancer cells by MTT assay; assay type: functional, cell-based; details: Homo sapiens
NCI/ADR-RES [2] = experiment: Tumor killing activity in MCF7/ADR drug-resistant cell line by MTT assay; assay type: functional, cell-based; details: Homo sapiens
MCF7 [3] = experiment: Cytotoxicity on drug-sensitive MCF7 cells; assay type: functional, cell-based; details: Homo sapiens
NCI/ADR-RES [4] = experiment: Tumor killing activity in MCF7/ADR drug-resistant cell line with 10 uM verapamil (P-gp inhibitor); assay type: functional, cell-based; details: Homo sapiens
NCI/ADR-RES [5] = experiment: Percentage intracellular concentration in MCF7/ADR drug-resistant cell line; assay type: ADME, cell-based; details: human
AT3B-1 [6] = experiment: Percentage intracellular concentration in AT3B1 drug-resistant cell line; assay type: ADME, cell-based, Homo sapiens
AT3B-1 [7] = experiment: Inhibition of tumor killing activity in AT3B1 drug-resistant cell line with 10 uM verapamil (P-gp inhibitor); assay type: functional, cell-based; details: Rattus norvegicus
AT3B-1 [8] = experiment: Tumor killing activity in AT3B1 drug-resistant cell line by MTT assay; assay type: functional, cell-based; details: Rattus norvegicus
MCF7 [9] = experiment: Percentage intracellular concentration in MCF7 breast cancer cells; assay type: ADME, cell-based; details: human

permeability (NCI/ADR-RES [5]) | permeability (AT3B-1 [6]) | permeability (MCF7 [9]) | SMILES | IC50 (MCF7 [1]) | IC50 (NCI/ADR-RES [2]) | Activity (MCF7 [3]) | IC50 (NCI/ADR-RES [4]) | IC50 (AT3B-1 [7]) | IC50 (AT3B-1 [8])
58.4% | 49.3% | 84.6% | COc1cccc2c1C(=O)c1c(O)c3c(c(O)c1C2=O)C[C@@](O)(C(=O)CO)C[C@@H]3O[C@H]1C[C@H](NC(=O)C2CCC(CN3C(=O)CC(SC[C@H](N)C(=O)NCC(=O)NCC(=O)NCC(=O)N[C@@H](Cc4ccc(O)cc4)C(=O)NCC(=O)N[C@@H](CCCN=C(N)N)C(=O)N[C@@H](CCCCN)C(=O)N[C@@H](CCCCN)C(=O)N[C@@H](CCCN=C(N)N)C(=O)N[C@@H](CCCN=C(N)N)C(=O)N[C@@H](CCC(N)=O)C(=O)N[C@@H](CCCN=C(N)N)C(=O)N[C@@H](CCCN=C(N)N)C(=O)N[C@@H](CCCN=C(N)N)C(=O)O)C3=O)CC2)[C@H](O)[C@H](C)O1 (some centres not stated) | 0.28 µM | 5.8 µM | Dose-dependent effect | 5.2 µM | 23.8 µM | 23.4 µM
4.5% | 7.9% | 92.3% | COc1cccc2c1C(=O)c1c(O)c3c(c(O)c1C2=O)C[C@@](O)(C(=O)CO)C[C@@H]3O[C@H]1C[C@H](N)[C@H](O)[C@H](C)O1 [DOXORUBICIN] | – | 45.2 µM | Dose-dependent effect | 6.7 µM | 42.4 µM | 168 µM
